Results as given in patent publication US20250051338A1, “TYK2 DEGRADERS AND USES THEREOF” (Kymera Therapeutics, Inc., priority 2021, published 2025).

Tests used:
Format in all cases: cell-based
TYK2 [1] = biological target: T1, TYK2 (Homo sapiens, UniProt P29597); assay: TYK2 degradation MSD assay in EBV-B cells; parameters: endogenous in cells; host or cells: EBV-B cells; settings: 4 to 24 hours incubation, read-out: TYK2 MSD DC50 rating in EBV-B
Outline: (§1)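 Compound-driven TYK2 loss is measured with a Meso Scale Discovery sandwich assay on whole-cell lysates. Cells are incubated 4 to 24 hours at 37° C with nine 1:3-diluted doses topping at 1 to 10 μM, and DC50 values derive from four-parameter curve fitting.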

TYK2 [2] = biological target: T1, TYK2; assay: TYK2 degradation MSD assay in OCI-LY10 cells; parameters: endogenous in cells; host or cells: EBV-B cells; settings: 4 to 24 hours incubation, read-out: TYK2 MSD DC50 rating in OCI-LY10
Outline: as §1

TYK2 [3] = biological target: T1, TYK2; assay: TYK2 degradation MSD assay in human PBMC cells; parameters: endogenous in cells; host or cells: human PBMC; settings: 4 to 24 hours incubation, read-out: TYK2 MSD DC50 rating in human PBMC
Outline: as §1

T1 sequence (P29597 whole entry): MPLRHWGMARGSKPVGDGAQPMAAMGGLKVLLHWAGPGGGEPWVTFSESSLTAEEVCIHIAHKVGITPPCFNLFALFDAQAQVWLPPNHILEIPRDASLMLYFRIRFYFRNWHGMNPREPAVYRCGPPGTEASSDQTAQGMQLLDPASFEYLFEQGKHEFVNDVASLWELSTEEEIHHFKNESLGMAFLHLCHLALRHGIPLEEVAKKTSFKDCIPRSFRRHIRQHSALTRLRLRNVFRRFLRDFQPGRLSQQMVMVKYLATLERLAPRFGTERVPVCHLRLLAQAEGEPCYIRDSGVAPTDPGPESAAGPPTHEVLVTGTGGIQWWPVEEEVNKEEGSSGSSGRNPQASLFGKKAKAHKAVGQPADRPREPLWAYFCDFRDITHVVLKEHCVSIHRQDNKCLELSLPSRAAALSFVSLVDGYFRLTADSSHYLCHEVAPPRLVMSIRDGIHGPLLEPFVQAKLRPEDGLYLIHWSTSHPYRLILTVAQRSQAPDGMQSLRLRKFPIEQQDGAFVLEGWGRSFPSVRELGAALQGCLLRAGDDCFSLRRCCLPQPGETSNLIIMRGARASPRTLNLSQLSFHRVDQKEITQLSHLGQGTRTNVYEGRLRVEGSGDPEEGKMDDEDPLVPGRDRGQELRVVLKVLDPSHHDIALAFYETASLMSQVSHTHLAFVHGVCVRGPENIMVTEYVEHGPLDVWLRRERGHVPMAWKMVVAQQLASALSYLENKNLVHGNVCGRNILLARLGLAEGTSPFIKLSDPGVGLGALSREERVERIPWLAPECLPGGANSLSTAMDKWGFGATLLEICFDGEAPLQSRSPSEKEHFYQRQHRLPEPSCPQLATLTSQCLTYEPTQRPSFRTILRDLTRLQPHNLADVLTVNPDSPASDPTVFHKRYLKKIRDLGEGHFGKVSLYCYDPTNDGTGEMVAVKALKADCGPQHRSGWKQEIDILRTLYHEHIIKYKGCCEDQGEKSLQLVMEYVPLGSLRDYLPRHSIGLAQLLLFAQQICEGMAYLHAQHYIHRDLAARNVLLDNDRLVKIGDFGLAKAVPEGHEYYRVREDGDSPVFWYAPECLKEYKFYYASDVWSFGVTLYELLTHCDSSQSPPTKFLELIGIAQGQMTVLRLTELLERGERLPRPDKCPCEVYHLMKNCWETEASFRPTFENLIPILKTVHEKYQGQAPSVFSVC

SMILES	DC50 (TYK2 [1]) [nM]	DC50 (TYK2 [2]) [nM]	DC50 (TYK2 [3]) [nM]
CNc1cc(Nc2cccn(-c3ccc(C(=O)N(C)CC4CCN(Cc5cccc6c5n(C)c(=O)n6C5CCC(=O)NC5=O)CC4)cn3)c2=O)nn2c(C(=O)N[C@@H]3C[C@@H]3F)cnc12 (stereo partly drawn) [Example K281]	< 1	> 100	< 1
CNC(=O)c1cnc(NC(=O)CCCCCCCc2ccc3c(c2)n(C)c(=O)n3C2CCC(=O)NC2=O)cc1Nc1cccc(-c2ncc(F)cn2)c1OC (stereo not drawn) [Example K104]	> 100	> 100	> 100
CNc1cc(Nc2cccn(-c3ccc(C(=O)N4CC5(CC(CN6CCN(c7ccc8c(c7)n(C)c(=O)n8C7CCC(=O)NC7=O)CC6)CO5)C4)cn3)c2=O)nn2c(C(=O)N[C@@H]3C[C@@H]3F)cnc12 (stereo partly drawn) [Example K418]	> 100	< 1	> 100
CNc1cc(Nc2cccc(-c3ccc(CN4CCC(C#Cc5ccc6c(c5)n(C)c(=O)n6C5CCC(=O)NC5=O)CC4)cn3)c2)nn2c(C(=O)N[C@@H]3C[C@@H]3F)cnc12 (stereo partly drawn) [Example K436]	> 100	< 1	> 100
CNc1cc(Nc2cccn(-c3ccc(C(=O)C4CCC(C5CCN(c6ccc7c(c6)n(C)c(=O)n7C6CCC(=O)NC6=O)C5)CN4)cn3)c2=O)nn2c(C(=O)N[C@@H]3C[C@@H]3F)cnc12 (stereo partly drawn) [Example K424]	> 100	> 100	> 100
CNC(=O)c1cnc(Nc2ccc(CN3CCC(CN4CCC(c5ccc6c(c5)n(C)c(=O)n6C5CCC(=O)NC5=O)CC4)CC3)cn2)cc1Nc1cccc(-c2ncc(F)cn2)c1OC (stereo not drawn) [Example K146]	< 1	> 100	< 1
CNc1cc(Nc2cccn(C3CCN(C(=O)N(C)C4CCN(Cc5cccc6c5n(C)c(=O)n6C5CCC(=O)NC5=O)CC4)CC3)c2=O)nn2c(C(=O)N[C@@H]3C[C@@H]3F)cnc12 (stereo partly drawn) [Example K396]	1 to 10	> 100	> 100
CNc1cc(Nc2cccn(-c3ccc(C(=O)N4CCC(c5ncc(-c6ccc7c(c6)n(C)c(=O)n7C6CCC(=O)NC6=O)cn5)CC4)cn3)c2=O)nn2c(C(=O)N[C@@H]3C[C@@H]3F)cnc12 (stereo partly drawn) [Example K385]	< 1	> 100	< 1
CNc1cc(Nc2cccn(-c3ccc(C(=O)N4CCC(OCC#Cc5cccc6c5n(C)c(=O)n6C5CCC(=O)NC5=O)CC4)cn3)c2=O)nn2c(C(=O)N[C@@H]3C[C@@H]3F)cnc12 (stereo partly drawn) [Example K421]	> 100	1 to 10	> 100
CNC(=O)c1cnc(Nc2ccc(CN3CCC(OC4CC(c5ccc6c(c5)n(C)c(=O)n6C5CCC(=O)NC5=O)C4)CC3)cn2)cc1Nc1cccc(-c2ncc(F)cn2)c1OC (stereo not drawn) [Example K159]	< 1	> 100	> 100
COc1c(Nc2cc(Nc3ccc(C(=O)NCCCCc4cccc5c4n(C)c(=O)n5C4CCC(=O)NC4=O)cn3)ncc2C(=O)NC2CC2)cccc1-c1ncc(F)cn1 (stereo not drawn) [Example K180]	10 to 100	> 100	1 to 10
CNC(=O)c1cnc(Nc2ccc(CN(C)CC3CCN(c4ccc5c(c4)n(C)c(=O)n5C4CCC(=O)NC4=O)CC3)cn2)cc1Nc1cccc(-c2ncc(F)cn2)c1OC (stereo not drawn) [Example K135]	< 1	> 100	< 1
CNC(=O)c1cnc(NC(=O)NCCCCCCCCc2cccc3c2n(C)c(=O)n3C2CCC(=O)NC2=O)cc1Nc1cccc(-c2ncc(F)cn2)c1OC (stereo not drawn) [Example K184]	> 100	> 100	1 to 10
CNc1cc(Nc2cccn(-c3cccc(C(=O)NCCCCCCCCCCc4cccc5c4n(C)c(=O)n5C4CCC(=O)NC4=O)c3)c2=O)nn2c(C(=O)N[C@@H]3C[C@@H]3F)cnc12 (stereo partly drawn) [Example K226]	> 100	> 100	10 to 100
CNC(=O)c1cnc(Nc2ccc(CN(C)C3CN(c4cccc5c4n(C)c(=O)n5C4CCC(=O)NC4=O)C3)cn2)cc1Nc1cccc(-c2ncc(F)cn2)c1OC (stereo not drawn) [Example K154]	> 100	< 1	< 1
Cn1c(=O)n(C2CCC(=O)NC2=O)c2ccc(CCCCCCCCNc3cc(Nc4cccn(-c5ccccn5)c4=O)nn4c(C(=O)N[C@@H]5C[C@@H]5F)cnc34)cc21 (stereo partly drawn) [Example K208]	> 100	> 100	> 100
CNc1cc(-c2cnn(C3CN(C(=O)NCCCCc4cccc5c4n(C)c(=O)n5C4CCC(=O)NC4=O)C3)c2)nn2c(C(=O)N[C@@H]3C[C@@H]3F)cnc12 (stereo partly drawn) [Example K316]	> 100	> 100	> 100
CNc1cc(Nc2cccn(-c3cc(C(=O)NCCCCCCc4ccc5c(c4)n(C)c(=O)n5C4CCC(=O)NC4=O)ccn3)c2=O)nn2c(C(=O)N[C@@H]3C[C@@H]3F)cnc12 (stereo partly drawn) [Example K229]	> 100	> 100	< 1
Cn1c(=O)n(C2CCC(=O)NC2=O)c2ccc(CN3CCC(Nc4cc(Nc5cccn(-c6ccccn6)c5=O)nn5c(C(=O)N[C@@H]6C[C@@H]6F)cnc45)CC3)cc21 (stereo partly drawn) [Example K367]	> 100	> 100	> 100
CNC(=O)c1cnc(Nc2ccc(CN(C)C3CCN(c4ccc5c(c4)n(C)c(=O)n5C4CCC(=O)NC4=O)CC3)cn2)cc1Nc1cccc(-c2ncc(F)cn2)c1OC (stereo not drawn) [Example K155]	< 1	> 100	< 1
CNC(=O)c1cnc(Nc2ccc(C(=O)N(C)C3CCN(c4cccc5c4n(C)c(=O)n5C4CCC(=O)NC4=O)CC3)cn2)cc1Nc1ccccc1OC (stereo not drawn) [Example K195]	1 to 10	> 100	> 100

Now from value to compound:

DC50 (TYK2 [1]) [nM]	DC50 (TYK2 [2]) [nM]	DC50 (TYK2 [3]) [nM]	SMILES
1 to 10	> 100	> 100	CNC1=CC(Nc2cccc(-c3ccc(CN4CCN(c5ccc(-c6cccc7c(N8CCC(=O)NC8=O)cncc67)cc5)CC4)cn3)c2)=NN2C1=NCC2C(=O)N[C@@H]1C[C@@H]1F (stereo partly drawn) [Example K516]
> 100	1 to 10	> 100	CNc1cc(N2CCc3c(-c4ccc(CN5CCN(c6cccc7c6n(C)c(=O)n7C6CCC(=O)NC6=O)CC5)cn4)cccc32)nn2c(C(=O)N[C@@H]3C[C@@H]3F)cnc12 (stereo partly drawn) [Example K637]
> 100	< 1	> 100	CNc1cc(Nc2cccn(-c3ccc(C(=O)N4CCC(OC5CC(c6cccc7c6n(C)c(=O)n7C6CCC(=O)NC6=O)C5)CC4)cn3)c2=O)nn2c(C(=O)N[C@@H]3C[C@@H]3F)cnc12 (stereo partly drawn) [Example K442]
> 100	10 to 100	> 100	CNc1cc(Nc2cccc(CN3CCN(CCc4ccc5c(c4)n(C)c(=O)n5C4CCC(=O)NC4=O)CC3)c2)nn2c(C(=O)NC3CC3)cnc12 (stereo not drawn) [Example K612]
> 100	1 to 10	> 100	CNc1cc(Nc2cccc(-c3ccc(CN4CCN(c5ccc(-c6ccc7c(c6)n(C)c(=O)n7C6CCC(=O)NC6=O)cc5)CC4)cn3)c2C(F)F)nn2c(C(=O)N[C@@H]3C[C@@H]3F)cnc12 (stereo partly drawn) [Example K611]
< 1	> 100	> 100	CNC(=O)c1cnc(Nc2ccc(CN3CCC(OCC#Cc4ccc5c(c4)n(C)c(=O)n5C4CCC(=O)NC4=O)CC3)cn2)cc1Nc1cccc(-c2ncc(F)cn2)c1OC (stereo not drawn) [Example K708]
> 100	< 1	> 100	CNc1cc(Nc2cccn(-c3ccc(CN4CC5(C4)CN(c4ccc(-c6ccc7c(c6)n(C)c(=O)n7C6CCC(=O)NC6=O)cc4)C5)cn3)c2=O)nn2c(C(=O)N[C@@H]3C[C@@H]3F)cnc12 (stereo partly drawn) [Example K519]
> 100	< 1	> 100	Cn1c(=O)n(C2CCC(=O)NC2=O)c2ccc(-c3ccc(N4CCN(Cc5ccc(-c6cccc(Nc7nn8c(C(=O)N[C@@H]9C[C@@H]9F)cnc8c8c7OCCN8)c6)nc5)CC4)cc3)cc21 (stereo partly drawn) [Example K557]
> 100	1 to 10	> 100	CNc1cc(Nc2cccc(-c3ccc(CN4CCN(c5ccc(-c6ccc7c(c6)n(C)c(=O)n7C6CCC(=O)NC6=O)cc5)CC4)cn3)c2OC)nn2c(C(=O)NC3CC3C)cnc12 (stereo not drawn) [Example K542]
> 100	< 1	> 100	CNc1cc(N2CCc3c(-c4cc(N5CCN([C@H]6CC[C@H](c7ccc8c(c7)n(C)c(=O)n8C7CCC(=O)NC7=O)CC6)CC5)ccn4)cccc32)nn2c(C(=O)NC3CC3F)cnc12 (stereo partly drawn) [Example K650, N-[(1R,2S)-2-fluorocyclopropyl]-8-(methylamino)-6-[4-(4-{4-[(1r,4r)-4-[1-(2,6-dioxopiperidin-3-yl)-3-methyl-2-oxo-1,3-benzodiazol-5-yl]cyclohexyl]piperazin-1-yl}pyridin-2-yl)-2,3-dihydroindol-1-yl]imidazo[1,2-b]pyridazine-3-carboxamide]
> 100	1 to 10	> 100	CNc1cc(Nc2cccc(C3CCC(CN4CCN(c5ccc(-c6ccc7c(c6)n(C)c(=O)n7C6CCC(=O)NC6=O)cc5)CC4)CC3)c2OC)nn2c(C(=O)N[C@@H]3C[C@@H]3F)cnc12 (stereo partly drawn) [Example K621]
> 100	> 100	> 100	O=C1CCN(c2cc(C(=O)N3CCC4(CC3)CN(Cc3ccc(-c5cccc6c5CCN6c5ccc6ncc(C(=O)NC7CC7)n6n5)nc3)C4)ccc2Cl)C(=O)N1 [Example K554]
> 100	< 1	> 100	CNc1cc(Nc2cccc(CN3CCC(N(C)CC4CCN(c5ccc(-c6ccc7c(c6)n(C)c(=O)n7C6CCC(=O)NC6=O)cc5)C4)CC3)c2)nn2c(C(=O)NC3CC3)cnc12 (stereo not drawn) [Example K583]
